The conditions of series [1]: cited from earlier work.
Series [2] has as its system ATM-Ser1981 foci in AT153LA cells (TGA A). As to the kind of experiment: Irradiation-induced ATM-Ser1981 foci (IRIF) in AT153LA cells. For IRIF (ATMs1981): key: the positive results on various assays are also summarized and labeled as '+'. It counts as cell-based, human. As for the experimental part:
To evaluate the function of RTC-induced ATM protein, we measured irradiation-induced foci (IRIF) formation of ATM-Ser1981 in the same ATI53LA cells (TGA A). […] The maximum IRIF induction achieved in A-T cells by 10 μM RTC#13 was ˜40% of wild-type level. As a positive readthrough control, 144 μM of G418 (100 μg/ml) was used to treat cells. Our previous studies had shown that, at this concentration, […] induced a maximum level of ATMs1981 IRIF (Lai et al., 2004).
Immunostaining of nuclear foci of ATM-Ser1981 was performed as previously reported (Du et al., 2007). In brief, after being treated with compound for 4 d, cells were irradiated with 2 Gy and incubated at 37° C. for 30 min. The cells were dropped onto coverslips, fixed with 4% paraformaldehyde, and permeabilized. Coverslips were blocked for 1 h and incubated with mouse anti-ATM pSer1981 for 1 h (1:500; Rockland Immunochemicals, Inc). After a second blocking, cells were stained with FITC-conjugated anti-mouse IgG (1:150; Jackson ImmunoResearch Laboratories) for 1 h and mounted onto slides.
Studies on IR-induced ATMs1981 foci formation by RTC#13 and derivatives 13a, 13b, 13d, 13e, 13f, 13g, 13h, 13i, 13j, and 13k in A-T153LA cells (TGA) were performed according to the procedures provided in Example 1.
(§1) These two series, 13 and 15, were again tested for readthrough activity using the assay in which the ATM protein kinase activity was measured by functional flow cytometry (FC-ATM) (Table 4 and FIG. 12). A second assay, irradiation (1R)-induced ATMs1981 nuclear foci formation (IRIF-ATM), was also used to confirm the readthrough activity of these compounds (Table 4 and FIG. 13). Table 3 summarizes the data for the analogues 13 and 15 (at 30 μM), in which the groups R, R′, and X were varied. More detailed data are reported in FIG. 5 (for FC-ATM assay), and in FIG. 6 (for IRIF-ATM assay). […] Thus, the pyrimidinedione unit serves as a good structural replacement for the 2-imino and 2-thioxo thiazolidin-4-one units.

The test system of series [3] is ATMs1981 autophosphorylation in AT153LA cells (TGA). The series can be described thus: Flow cytometry ATMs1981 autophosphorylation (FC-ATM) in AT153LA cells. For FCATMs1981: key: the positive results on various assays are also summarized and labeled as '+'. It counts as cell-based, human. As for the experimental part:
FC-SMC1 assay was performed as recently described (Nahas et al., 2009). FC-ATM-Ser1981 assay was based on Honda's assay (Honda et al., 2009, Leukemia. 23:409-414) with modifications. In brief, cells were resuspended in PBS and radiated for 10 Gy. After 1 h, the cells were fixed and permeabilized using the FIX & PERM cell permeabilization kit (Invitrogen). The cells were then incubated with 1 μl of mouse ATM-Ser1981 antibody (Cell Signaling Technology) for 2 h at room temperature. Cells were washed and resuspended in 100 μl PBS with Alexa Fluor 488 anti-mouse IgG (Invitrogen) for 45 min. Cells were next washed and resuspended in PBS with 0.2% paraformaldehyde and analyzed using a FACSCalibur (BD).
Studies on readthrough activity of RTC#13 derivatives as measured by FC-ATMS 1981 were performed according to the procedures provided in Example 1.
These two series, 7 and 9, were tested for readthrough activity using an assay in which the ATM protein kinase activity was measured using a flow cytometry-based ATMs1981 autophosphorylation assay (FC-ATM) (Nahas, S. A; et al., Clin. Chem. 2009, 55, 463-72). […] An increased Delta-FI indicates the restoration of ATM kinase activity by a compound.
as §1
For orientation: A flow cytometer gives signals particle by particle.

For series [4], the system named is dystrophin in mdx myotubes (TAA). As to the kind of experiment: Dystrophin expression in mdx myotubes. In kind it is cell-based, mouse. The following applies: FIG. 21. Here is the method:
To investigate the ability of RTC#13 and #14 to readthrough a PTC mutation in genes other than ATM, we used mdx myotubes. The mdx mouse has been widely used as a model for Duchenne muscular dystrophy. It carries a C to T transition in exon 23 of the dystrophin gene that creates a premature stop codon (TAA), resulting in an absence of dystrophin protein (Sicinski, et al., 1989, Science. 244:1578-1580). […] Muscle progenitor cells isolated from mdx mice were induced to differentiate for 24 h before addition of gentamicin or compounds RTC#13 and #14. Myotube cultures were exposed to compounds for 72 h and then analyzed for dystrophin by Western blotting. […] We next used immunoprecipitation to increase the sensitivity of the assay (FIG. 8). […] Results were consistent in multiple experiments performed.
Cells were prepared and treated with RTCs for 3 d. Dystrophin proteins were detected by Western blot analysis using immunoprecipitation. Wild-type cells were used in the experiment to localize dystrophin protein. Gentamicin was used as a positive readthrough control. […] Results were consistent in three independent experiments.
Cells were derived from limb muscle of neonatal mdx and C57 mice, as previously described (Bertoni and Rando, 2002, Hum. Gene Ther. 13:707-718). For growth, cells were plated on dishes coated with 5 µg/ml laminin (Invitrogen) and maintained in growth medium consisting of Ham's F10 nutrient mixture (Mediatech, Inc.) supplemented with 20% fetal bovine serum, penicillin, and streptomycin. Cell differentiation was induced by maintaining the cells in low serum medium (differentiation medium) consisting of DME supplemented with 2% horse serum, penicillin, and streptomycin. Myoblasts were plated in wells of 6-well dishes and were allowed to differentiate for 24 h before adding the compounds. Media was replaced every 24 h with fresh differentiation media containing the compounds. Cells were lysed 96 h after induction of differentiation (72 h after addition of the compounds). Total protein was determined and dystrophin immunoblot analysis was performed as previously described (Sicinski et al., 1989). 250 μg of total protein from each sample was immunoprecipitated using a monoclonal antibody directed toward the rod domain (MANDYS—8; 1:40; Sigma-Aldrich) of the dystrophin protein and detected by Western blotting (Barton-Davis et al., 1999, J. Clin. Invest. 104:375-381; Bertoni and Rando, 2002).
Muscle cells were induced to differentiate to allow the formation of myotubes and synthesis of dystrophin mRNA. Compounds were added 24 hrs after induction of differentiation by direct addition into the media. The media was replaced every 24 hrs with fresh differentiation media containing the appropriate concentration of compounds. Myotubes were harvested 72 hrs later (96 hrs after induction of differentiation) and analyzed for dystrophin expression by immunoblot analysis (FIG. 14).
Cultures were analyzed for dystrophin expression by immunohistochemistry.
In the experiments shown in FIG. 21, the activity of two of the analogs of RTC#13 termed RTC#BZ6 and RTC#BZ16 was investigated in myotube cultures isolated from mdx mice. Compounds were added to the differentiation media 24 hrs after induction of differentiation and replaced every 24 hrs by changing the media with new fresh media containing the appropriate concentration of RTC#13, RTC#BZ6 or RTC#BZ16. […] No dystrophin expression was detected in cells treated with vehicle only at a final concentration of 10 μM.

“Also recorded” adds a separate entry of the source.

As for `O=C(O)c1cccc(-c2noc(-c3ccccc3F)n2)c1` [PTC124], the tolerability result in series [1] (phase-I clinical study in cystic fibrosis) is “generally well tolerated”. For the same compound, the “readthrough activity compared with aminoglycosides” value in series [1] (phase-I clinical study) is “more efficient readthrough activity than aminoglycosides”.

Regarding `N=C1NC(=O)/C(=C/c2c[nH]c(=O)[nH]c2=O)S1` [Compound 13k, (Z)-5-((2-imino-4-oxothiazolidin-5-ylidene)methyl)pyrimidine-2,4(1H,3H)-dione], the “IR-induced ATMs1981 foci formation, readthrough activity” value in series [2] (A-T153LA cells (TGA), FIG. 13) was “statistically significant readthrough activity; also recorded: good activity”. Further, the “IRIF-ATM (%) (30 μM)” value in series [2] (Table 4, 30 μM, IR-induced ATMs1981 nuclear foci formation) is on record as 17%. The “IRIF (ATMs1981)” value in series [2] (summary of positive results) is “+”. Also, the “FC-ATM readthrough activity” value in series [3] is “good activity”. In addition, in series [3] (Table 4, compounds 13 and 15, 30 μM), the “FC-ATM (Delta-FI, 30 μM)” value was 5.32. Besides, in series [3] (summary of positive results), the FCATMs1981 result is recorded as “+”. Moreover, the “dystrophin expression in mdx myotube cultures” value in series [4] is reported as “levels of dystrophin expression comparable to that achieved using the parent compound RTC#13”.

(Values after US9255088B2, “Premature-termination-codons readthrough compounds” (The Regents of the University of California, priority 2010, dated 2016).)
